Test results taken from patent US9179678B2, “Substituted [1,2,4]triazoles and substituted tetrazoles as herbicides” (SYNGENTA LIMITED, priority 2012, dated 2015).

Columns and labels:
Format in all cases: in vivo
[1] = test system: Ipomoea hederacea (IPOHE); assay: Post-emergence glasshouse herbicide test; conditions: POST Application, 1000 g/h, after 13 days
Experimental: (§1) Seeds of a variety of test species are sown in standard soil in pots (Alopecurus myosuroides (ALOMY), Setaria faberi (SETFA), Echinochloa crus-galli (ECHCG), Solanum nigrum (SOLNI), Amaranthus retoflexus (AMARE), Ipomoea hederacea (IPOHE)). After cultivation for one day (pre-emergence) or after 8 days cultivation (post-emergence) under controlled conditions in a glasshouse (at 24/16° C., day/night; 14 hours light; 65% humidity), the plants are sprayed with an aqueous spray solution derived from the formulation of the technical active ingredient in acetone/water (50:50) solution containing 0.5% Tween 20 (polyoxyethelyene sorbitan monolaurate, CAS RN 9005-64-5). Compounds ae applied at 1000 g/h. The test plants are then grown in a glasshouse under controlled conditions in a glasshouse (at 24/16° C., day/night; 14 hours light; 65% humidity) and watered twice daily. After 13 days for pre and post-emergence, the test is evaluated for the percentage damage caused to the plant. The biological activities are shown in the following table on a five point scale (5=80-100%; 4=60-79%; 3=40-59%; 2=20-39%; 1=0-19%).

[2] = test system: Alopecurus myosuroides (ALOMY); assay: Post-emergence glasshouse herbicide test; conditions: POST Application, 1000 g/h, after 13 days
Experimental: as §1

[3] = test system: Echinochloa crus-galli (ECHCG); assay: Post-emergence glasshouse herbicide test; conditions: POST Application, 1000 g/h, after 13 days
Experimental: as §1

[4] = test system: Amaranthus retoflexus (AMARE); assay: Post-emergence glasshouse herbicide test; conditions: POST Application, 1000 g/h, after 13 days
Experimental: as §1

[5] = test system: Solanum nigrum (SOLNI); assay: Post-emergence glasshouse herbicide test; conditions: POST Application, 1000 g/h, after 13 days
Experimental: as §1

[6] = test system: Setaria faberi (SETFA); assay: Pre-emergence glasshouse herbicide test; conditions: PRE Application, 1000 g/h, after 13 days
Experimental: as §1

[7] = test system: Ipomoea hederacea (IPOHE); assay: Pre-emergence glasshouse herbicide test; conditions: PRE Application, 1000 g/h, after 13 days
Experimental: as §1

[8] = test system: Alopecurus myosuroides (ALOMY); assay: Pre-emergence glasshouse herbicide test; conditions: PRE Application, 1000 g/h, after 13 days
Experimental: as §1

[9] = test system: Echinochloa crus-galli (ECHCG); assay: Pre-emergence glasshouse herbicide test; conditions: PRE Application, 1000 g/h, after 13 days
Experimental: as §1

[10] = test system: Amaranthus retoflexus (AMARE); assay: Pre-emergence glasshouse herbicide test; conditions: PRE Application, 1000 g/h, after 13 days
Experimental: as §1

[11] = test system: Solanum nigrum (SOLNI); assay: Pre-emergence glasshouse herbicide test; conditions: PRE Application, 1000 g/h, after 13 days
Experimental: as §1

[12] = test system: Setaria faberi (SETFA); assay: Post-emergence glasshouse herbicide test; conditions: POST Application, 1000 g/h, after 13 days
Experimental: as §1, with “Compounds ae applied at 1000 g/h.” left out

Cn1nnnc1NC(=O)c1cc2ccccc2n(-c2ccsc2)c1=O [Compound 7.002]
5 (5=80-100%): percentage damage caused to the plant, SOLNI [5]
3 (3=40-59%): percentage damage caused to the plant, AMARE [4] | percentage damage caused to the plant, SOLNI [11]
1 (1=0-19%): percentage damage caused to the plant, ALOMY [2] | percentage damage caused to the plant, SETFA [6] | percentage damage caused to the plant, ALOMY [8] | percentage damage caused to the plant, ECHCG [9] | percentage damage caused to the plant, SETFA [12]
2 (2=20-39%): percentage damage caused to the plant, IPOHE [1] | percentage damage caused to the plant, ECHCG [3] | percentage damage caused to the plant, IPOHE [7] | percentage damage caused to the plant, AMARE [10]

Cn1ncnc1NC(=O)c1nc2ccccc2n(-c2ccccc2)c1=O [Compound 5.041]
1 (1=0-19%): percentage damage caused to the plant, ECHCG [3] | percentage damage caused to the plant, SETFA [6] | percentage damage caused to the plant, ALOMY [8] | percentage damage caused to the plant, ECHCG [9] | percentage damage caused to the plant, SETFA [12]
2 (2=20-39%): percentage damage caused to the plant, ALOMY [2] | percentage damage caused to the plant, IPOHE [7]
5 (5=80-100%): percentage damage caused to the plant, IPOHE [1] | percentage damage caused to the plant, AMARE [4] | percentage damage caused to the plant, SOLNI [5] | percentage damage caused to the plant, AMARE [10] | percentage damage caused to the plant, SOLNI [11]

Cc1nc2c(cc1F)cc(C(=O)Nc1nnnn1C)c(=O)n2-c1ccccc1 [Compound 6.003]
4 (4=60-79%): percentage damage caused to the plant, ECHCG [3]
1 (1=0-19%): percentage damage caused to the plant, ALOMY [2] | percentage damage caused to the plant, SETFA [6] | percentage damage caused to the plant, ALOMY [8]
5 (5=80-100%): percentage damage caused to the plant, IPOHE [1] | percentage damage caused to the plant, AMARE [4] | percentage damage caused to the plant, SOLNI [5] | percentage damage caused to the plant, AMARE [10] | percentage damage caused to the plant, SOLNI [11]
3 (3=40-59%): percentage damage caused to the plant, IPOHE [7] | percentage damage caused to the plant, ECHCG [9] | percentage damage caused to the plant, SETFA [12]

CSc1ccc(-n2c(=O)c(C(=O)Nc3nnnn3C)nc3ccccc32)cc1 [Compound 5.020]
3 (3=40-59%): percentage damage caused to the plant, IPOHE [7] | percentage damage caused to the plant, ECHCG [9]
1 (1=0-19%): percentage damage caused to the plant, SETFA [6] | percentage damage caused to the plant, ALOMY [8]
2 (2=20-39%): percentage damage caused to the plant, SETFA [12]
5 (5=80-100%): percentage damage caused to the plant, IPOHE [1] | percentage damage caused to the plant, ALOMY [2] | percentage damage caused to the plant, ECHCG [3] | percentage damage caused to the plant, AMARE [4] | percentage damage caused to the plant, SOLNI [5] | percentage damage caused to the plant, AMARE [10] | percentage damage caused to the plant, SOLNI [11]

Cn1nnnc1NC(=O)c1nc2cccnc2n(C)c1=O [Compound 4.001]
5 (5=80-100%): percentage damage caused to the plant, ECHCG [3] | percentage damage caused to the plant, AMARE [4] | percentage damage caused to the plant, SOLNI [5] | percentage damage caused to the plant, AMARE [10] | percentage damage caused to the plant, SOLNI [11]
2 (2=20-39%): percentage damage caused to the plant, SETFA [12]
4 (4=60-79%): percentage damage caused to the plant, IPOHE [1] | percentage damage caused to the plant, ECHCG [9]
3 (3=40-59%): percentage damage caused to the plant, IPOHE [7]
1 (1=0-19%): percentage damage caused to the plant, ALOMY [2] | percentage damage caused to the plant, SETFA [6] | percentage damage caused to the plant, ALOMY [8]

Cc1cccc(-n2c(=O)c(C(=O)Nc3nnnn3C)nc3ccccc32)c1 [Compound 5.011]
5 (5=80-100%): percentage damage caused to the plant, IPOHE [1] | percentage damage caused to the plant, AMARE [4] | percentage damage caused to the plant, SOLNI [5] | percentage damage caused to the plant, IPOHE [7] | percentage damage caused to the plant, AMARE [10] | percentage damage caused to the plant, SOLNI [11] | percentage damage caused to the plant, SETFA [12]
2 (2=20-39%): percentage damage caused to the plant, ALOMY [2] | percentage damage caused to the plant, ALOMY [8]
4 (4=60-79%): percentage damage caused to the plant, ECHCG [3] | percentage damage caused to the plant, SETFA [6] | percentage damage caused to the plant, ECHCG [9]

Cc1cccc(-n2c(=O)c(C(=O)Nc3ncnn3C)nc3ccccc32)n1 [Compound 5.038]
2 (2=20-39%): percentage damage caused to the plant, ECHCG [3]
4 (4=60-79%): percentage damage caused to the plant, SETFA [6] | percentage damage caused to the plant, ALOMY [8]
5 (5=80-100%): percentage damage caused to the plant, IPOHE [1] | percentage damage caused to the plant, ALOMY [2] | percentage damage caused to the plant, AMARE [4] | percentage damage caused to the plant, SOLNI [5] | percentage damage caused to the plant, AMARE [10] | percentage damage caused to the plant, SOLNI [11] | percentage damage caused to the plant, SETFA [12]
1 (1=0-19%): percentage damage caused to the plant, ECHCG [9]
3 (3=40-59%): percentage damage caused to the plant, IPOHE [7]

Cn1nnnc1NC(=O)c1nc2ccccc2n(-c2cccc(Cl)c2)c1=O [Compound 5.016]
5 (5=80-100%): percentage damage caused to the plant, IPOHE [1] | percentage damage caused to the plant, ALOMY [2] | percentage damage caused to the plant, ECHCG [3] | percentage damage caused to the plant, AMARE [4] | percentage damage caused to the plant, SOLNI [5] | percentage damage caused to the plant, SETFA [6] | percentage damage caused to the plant, IPOHE [7] | percentage damage caused to the plant, ECHCG [9] | percentage damage caused to the plant, AMARE [10] | percentage damage caused to the plant, SOLNI [11] | percentage damage caused to the plant, SETFA [12]
4 (4=60-79%): percentage damage caused to the plant, ALOMY [8]

Cc1cccc(-n2c(=O)c(C(=O)Nc3nnnn3C)nc3ccccc32)n1 [Compound 5.003]
5 (5=80-100%): percentage damage caused to the plant, IPOHE [1] | percentage damage caused to the plant, ALOMY [2] | percentage damage caused to the plant, ECHCG [3] | percentage damage caused to the plant, AMARE [4] | percentage damage caused to the plant, SOLNI [5] | percentage damage caused to the plant, SETFA [6] | percentage damage caused to the plant, IPOHE [7] | percentage damage caused to the plant, ALOMY [8] | percentage damage caused to the plant, ECHCG [9] | percentage damage caused to the plant, AMARE [10] | percentage damage caused to the plant, SOLNI [11] | percentage damage caused to the plant, SETFA [12]
